Results on 3 compounds are retold here after ChEMBL document CHEMBL1137806, “Cytotoxic oxoisoaporphine alkaloids from Menispermum dauricum” (J Nat Prod, 2001).

Structures are written as SMILES.

Format in all cases: functional, cell-based
For one test, the system named is P388. Briefly: Cytotoxicity against mouse P388 cells by MTT assay. (Formazan colour is commonly taken as a measure of viable cells.)
The next test has as its system MCF7. Briefly: Cytotoxicity against human MCF7 cells by MTT assay.
The subject of the next test is A549. The experiment in a line: Cytotoxicity against human A549 cells by MTT assay.
For the next test, the system named is HL-60. The experiment in a line: Cytotoxicity against human HL60 cells by MTT assay.

Consider `COc1ccc2c(c1)C(=O)c1c(NCCc3ccc(O)cc3)c(OC)cc3ccnc-2c13` [DAURIOXOISOPORPHINE A], for which the IC50 (commonly the concentration needed to halve the response being measured) in the test with P388 was 30.5 µM; with MCF7, 3 µM; in the test with A549, 8.8 µM; in the test on HL-60, above 50 µM.
On to `COc1ccc2c(c1)C(=O)c1c(N)c(OC)c(OC)c3ccnc-2c13` [DAURIOXOISOPORPHINE B], for which the IC50 in the test with P388 was 9.6 µM; in the test on MCF7, 6.2 µM; in the test on A549, above 50 µM; in the test on HL-60 it was above 50 µM.
On to `COc1cc([C@@H]2c3cc4c(cc3[C@@H](O[C@@H]3O[C@@H]5CO[C@@H](C)O[C@H]5[C@H](O)[C@H]3O)[C@H]3COC(=O)[C@H]23)OCO4)cc(OC)c1O` [ETOPOSIDE], for which the IC50 in the test with P388 is 0.1 µM; in the test on MCF7, 12.3 µM; with A549 it was 0.5 µM; with HL-60 it was 5.4 µM.
